Source: the NIST ThermoML archive (doi:10.1016/j.tca.2019.03.026)
Numbers after ± are expanded uncertainties.

What was measured:
[1] = for Normal melting temperature: DTA
[2] = Molar enthalpy of transition or fusion; conditions: DSC

**Q.** With `Cc1ccc(C)c(OCCCC(C)(C)C(=O)O)c1` [gemfibrozil] as the compound, how does the Normal melting temperature ([1]; Crystal) read?
**A.** Its Normal melting temperature is 59.00 ± 0.4 °C.

**Q.** What about the Glass transition temperature ([1]; Glass, DSC) of the same compound?
**A.** The Glass transition temperature was -32.00 ± 1 °C.

**Q.** What about the Normal melting temperature ([1]; Metastable crystal) of the same compound?
**A.** Its Normal melting temperature is 58.00 ± 0.4 °C.

**Q.** What about the “Molar enthalpy of transition or fusion” value ([2]; Crystal) of the same compound?
**A.** Its value is 6.76 ± 0.454 kcal/mol.

**Q.** What about the “Molar enthalpy of transition or fusion” value ([2]; Metastable crystal) of the same compound?
**A.** The value was 6.19 ± 0.502 kcal/mol.
